In US10336792B2, “Antimicrobial peptide dendrimers” (priority 2014, dated 2019):
In brackets after ≈: the same amount, converted by molar mass. Positions of bridges follow the written chain, without caps; N, C: chain ends. Non-standard residues stand in square brackets, D forms with d. Residues, ends and D or L forms follow the SMILES beside them. Groups on a side chain read outwards from the residue. Chains are numbered I, II in the order given. *: point of attachment. dDap = NC[C@@H](N)C(=O)O; Dab = NCC[C@H](N)C(=O)O; Hexanoyl = CCCCCC(=O)*

Legend:
Format in all cases: cell-based
[1] = test system: Pseudomonas aeruginosa (strain PA01); experiment: microbe, parasite or virus in culture; settings: strain
In short: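 Broth microdilution MIC against P. aeruginosa PAO1 in LB: peptides serially diluted by ⅔, bacteria added at OD600 0.001 and incubated 18–24 h at 37 °C. MTT added; MIC is the lowest concentration preventing visible growth.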

[2] = test system: Escherichia coli (strain DH5α); settings: DH5α
In short: (§1)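 Broth microdilution MIC in LB; overnight cultures diluted to OD600 0.001 and mixed 1:1 with ⅔-serially diluted samples (stock 1 mg mL^−1 in H2O), 37° C for 18-24 h. MTT (0.1%) added; MIC read by eye as lowest concentration inhibiting visible growth (yellow).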

[3] = test system: Bacillus subtilis (strain BR151); settings: strain BR151
In short: as §1

Row | Structure (SMILES) | MIC P. aeruginosa PAO1 [1] | MIC E. coli DH5α [2] | MIC B. subtilis BR151 [3]
1 | CCCCCC(=O)NCCCC[C@H](NC(=O)[C@H](CC(C)C)NC(=O)[C@H](CCCCN)NC(=O)[C@H](CCCCNC(=O)[C@H](CC(C)C)NC(=O)[C@H](CCCCN)NC(=O)[C@H](CCCCNC(=O)[C@H](CC(C)C)NC(=O)[C@@H](N)CCCCN)NC(=O)[C@H](CC(C)C)NC(=O)[C@@H](N)CCCCN)NC(=O)[C@H](CC(C)C)NC(=O)[C@H](CCCCN)NC(=O)[C@H](CCCCNC(=O)[C@H](CC(C)C)NC(=O)[C@@H](N)CCCCN)NC(=O)[C@H](CC(C)C)NC(=O)[C@@H](N)CCCCN)C(N)=O [MSt-260, (KL)4(KKL)2(KKLKC6)] (I: H-KLK([Leu-Lys])KLKKLK(Hexanoyl)-NH2 / II: H-KLK([Leu-Lys])KL; amide I:6-II:C) | 1 µg/mL (≈ 0.432 µM) | 2 µg/mL (≈ 0.863 µM) | 20 µg/mL (≈ 8.63 µM)
2 | CC(C)C[C@H](NC(=O)[C@@H](N)CCN)C(=O)NCCCC[C@H](NC(=O)[C@H](CC(C)C)NC(=O)[C@@H](N)CCN)C(=O)N[C@@H](CCN)C(=O)N[C@@H](Cc1c[nH]c2ccccc12)C(=O)NCCCC[C@H](NC(=O)[C@H](Cc1c[nH]c2ccccc12)NC(=O)[C@H](CCN)NC(=O)[C@H](CCCCNC(=O)[C@H](CC(C)C)NC(=O)[C@@H](N)CCN)NC(=O)[C@H](CC(C)C)NC(=O)[C@@H](N)CCN)C(=O)N[C@@H](CCN)C(=O)N[C@@H](C)C(=O)NCCCC[C@H](NC(=O)[C@H](C)NC(=O)[C@H](CCN)NC(=O)[C@H](CCCCNC(=O)[C@H](Cc1c[nH]c2ccccc12)NC(=O)[C@H](CCN)NC(=O)[C@H](CCCCNC(=O)[C@H](CC(C)C)NC(=O)[C@@H](N)CCN)NC(=O)[C@H](CC(C)C)NC(=O)[C@@H](N)CCN)NC(=O)[C@H](Cc1c[nH]c2ccccc12)NC(=O)[C@H](CCN)NC(=O)[C@H](CCCCNC(=O)[C@H](CC(C)C)NC(=O)[C@@H](N)CCN)NC(=O)[C@H](CC(C)C)NC(=O)[C@@H](N)CCN)C(=O)N[C@@H](CCN)C(=O)N[C@@H](Cc1c[nH]c2ccccc12)C(N)=O [MSt-206, (DabL)8(KDabW)4(KDabA)2(KDabW)] (I: H-[Dab]LK([Leu-Dab])[Dab]WK[Dab]AK[Dab]W-NH2 / II: H-[Dab]LK([Leu-Dab])[Dab]WK[Dab]A / III: H-[Dab]LK([Leu-Dab])[Dab]W / IV: H-[Dab]LK([Leu-Dab])[Dab]W; amide I:6-IV:C, I:9-II:C, II:6-III:C; N-terminus assumed) | 3 µg/mL (≈ 0.683 µM) | 2 µg/mL (≈ 0.455 µM) | 2 µg/mL (≈ 0.455 µM)
3 | CC(C)C[C@@H](NC(=O)[C@@H](CCCCN)NC(=O)[C@@H](CNC(=O)[C@@H](CC(C)C)NC(=O)[C@@H](CCCCN)NC(=O)[C@@H](CNC(=O)[C@@H](CC(C)C)NC(=O)[C@@H](CCCCN)NC(=O)[C@@H](CNC(=O)[C@@H](CC(C)C)NC(=O)[C@H](N)CCCCN)NC(=O)[C@@H](CC(C)C)NC(=O)[C@H](N)CCCCN)NC(=O)[C@@H](CC(C)C)NC(=O)[C@@H](CCCCN)NC(=O)[C@@H](CNC(=O)[C@@H](CC(C)C)NC(=O)[C@H](N)CCCCN)NC(=O)[C@@H](CC(C)C)NC(=O)[C@H](N)CCCCN)NC(=O)[C@@H](CC(C)C)NC(=O)[C@@H](CCCCN)NC(=O)[C@@H](CNC(=O)[C@@H](CC(C)C)NC(=O)[C@@H](CCCCN)NC(=O)[C@@H](CNC(=O)[C@@H](CC(C)C)NC(=O)[C@H](N)CCCCN)NC(=O)[C@@H](CC(C)C)NC(=O)[C@H](N)CCCCN)NC(=O)[C@@H](CC(C)C)NC(=O)[C@@H](CCCCN)NC(=O)[C@@H](CNC(=O)[C@@H](CC(C)C)NC(=O)[C@H](N)CCCCN)NC(=O)[C@@H](CC(C)C)NC(=O)[C@H](N)CCCCN)C(N)=O [MSt-154, (kl)8(bkl)4(bkl)2(bkl)] (I: H-[dK][dL][dDap]([dL-dK])[dK][dL][dDap][dK][dL][dDap][dK][dL]-NH2 / II: H-[dK][dL][dDap]([dL-dK])[dK][dL][dDap][dK][dL] / III: H-[dK][dL][dDap]([dL-dK])[dK][dL] / IV: H-[dK][dL][dDap]([dL-dK])[dK][dL]; amide I:6-IV:C, I:9-II:C, II:6-III:C) | 6 µg/mL (≈ 1.42 µM) | 2 µg/mL (≈ 0.472 µM) | 2 µg/mL (≈ 0.472 µM)
